This is an account of results in ChEMBL document CHEMBL1201862, “PubChem BioAssay data set” (2004).

Among the test systems are HOP-92; UO-31; HT-29; MOLT-4; SK-MEL-28; M14; CCRF-CEM; LOX IMVI; COLO 205; HOP-62; NCI-H522; OVCAR-4; SF-268; SR; SNB-78; TK-10; 786-0; UACC-62; EKVX; SF-295.
Test in all cases: NCI anticancer screen, dose series, 48 h

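Exposure lasted 48 hours, with cells grown in 96-well plates and compounds tested at five concentrations. Here, GI50 denotes the concentration required for 50% inhibition of growth.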 Calls of active or inactive are those of the source. Cut-off read from the data, not from the text of the source: active = GI50 up to about 1.1 µM and inactive = higher. Bounds are passed on as bounds.

Turning to `O=C(O)/C=C\C(=O)Nc1ccc(S(=O)(=O)c2ccc(NC(=O)/C=C\C(=O)O)cc2)cc1`, the GI50 with HOP-92, in the assay on UO-31, with HT-29, in the assay on MOLT-4, in the assay on SK-MEL-28 and with M14 was > 100 µM (inactive) each time. Besides, the GI50 with CCRF-CEM, in the assay on LOX IMVI, in the assay on COLO 205, with HOP-62, in the assay with NCI-H522 and in the assay with OVCAR-4 was > 100 µM (inactive) throughout. Also, the GI50 in the assay on SF-268, in the assay on SR, in the assay on SNB-78, with TK-10, in the assay on 786-0 and with UACC-62 was > 100 µM (inactive) in each case. Moreover, the GI50 with EKVX and in the assay on SF-295 was > 100 µM (inactive) in each case.
For the compound `c1cc(-c2cn3ccsc3n2)ccn1`, the GI50 with HOP-92, with UO-31, with HT-29, in the assay on MOLT-4, in the assay on SK-MEL-28 and in the assay on M14 was > 100 µM (inactive) in each case. Moreover, the GI50 in the assay with CCRF-CEM was > 41.8 µM (inactive); with LOX IMVI it was > 61 µM (inactive); in the assay with COLO 205, > 61.9 µM (inactive); in the assay on HOP-62, > 100 µM (inactive); in the assay with NCI-H522, > 100 µM (inactive); in the assay with OVCAR-4, > 65.8 µM (inactive). Moreover, the GI50 in the assay on SF-268 was > 100 µM (inactive); in the assay with SR, 65.9 µM (inactive); with SNB-78 it was > 100 µM (inactive); with TK-10, > 100 µM (inactive); with 786-0, 38.4 µM (inactive); with UACC-62, > 100 µM (inactive). Further, the GI50 with EKVX is > 41.8 µM (inactive); in the assay with SF-295, > 100 µM (inactive).
Take `C=C(OC1C(C)=C2C(C1OC(=O)CCCCCCC)C(C)(OC(C)=O)CC(OC(=O)CCC)C1(O)C2OC(=O)C1(C)O)/C(C)=C/C` (stereo not drawn): the GI50 in the assay on HOP-92 was 0.0125 µM (active); with UO-31, 0.115 µM (active); with HT-29, 0.0125 µM (active); with MOLT-4, 0.0125 µM (active); with SK-MEL-28, 0.0125 µM (active); with M14 it was < 0.0001 µM (active). Also, the GI50 with CCRF-CEM was 0.0141 µM (active); in the assay on LOX IMVI, 0.0125 µM (active); in the assay on NCI-H522 it was 0.0125 µM (active); in the assay on OVCAR-4 it was 0.0125 µM (active); in the assay with SF-268, 0.0125 µM (active); in the assay with SR, 0.000145 µM (active). In addition, the GI50 in the assay with SNB-78 was 0.015 µM (active); with 786-0, < 0.0001 µM (active); in the assay on UACC-62, 0.0125 µM (active); with EKVX it was 0.0334 µM (active); in the assay on SF-295, 0.0125 µM (active).
Regarding `N=C(N)C1=C(O)NC(=O)N(C2CCCCC2)C1`, the GI50 in the assay on HOP-92, with UO-31, in the assay on HT-29, with MOLT-4, in the assay with SK-MEL-28 and in the assay with M14 was > 100 µM (inactive) each time. Also, the GI50 with CCRF-CEM, in the assay on LOX IMVI, in the assay on COLO 205, in the assay on HOP-62, with NCI-H522 and in the assay with OVCAR-4 was > 100 µM (inactive) throughout. Besides, the GI50 in the assay with SF-268, with SR, in the assay on SNB-78, with TK-10, in the assay on 786-0 and in the assay on UACC-62 was > 100 µM (inactive) each time. Also, the GI50 in the assay with SF-295 was > 100 µM (inactive).
As for `C#CCn1c(=O)c2cccnc2n(CC#C)c1=O`, the GI50 in the assay on HOP-92, in the assay on HT-29, with MOLT-4, in the assay with SK-MEL-28, in the assay on M14 and with CCRF-CEM was > 100 µM (inactive) throughout. The GI50 in the assay on LOX IMVI, with COLO 205, with HOP-62, with NCI-H522, with OVCAR-4 and with SF-268 was > 100 µM (inactive) in each case. In addition, the GI50 with SR, in the assay with SNB-78, in the assay with TK-10, with 786-0 and in the assay on SF-295 was > 100 µM (inactive) each time.
For the compound `CC1=NN(C(=O)c2ccc(Cl)cc2)C(=O)/C1=C/c1cccc(O)c1`, the GI50 with HOP-92, in the assay with UO-31, with HT-29, in the assay on MOLT-4, in the assay with SK-MEL-28 and with M14 was > 100 µM (inactive) throughout. For the same compound, the GI50 in the assay with CCRF-CEM, with LOX IMVI, with COLO 205, in the assay on HOP-62, in the assay with NCI-H522 and in the assay with OVCAR-4 was > 100 µM (inactive) throughout. Moreover, the GI50 in the assay with SF-268, in the assay on SNB-78, in the assay with TK-10, in the assay with 786-0, in the assay on UACC-62 and with EKVX was > 100 µM (inactive) throughout. In addition, the GI50 in the assay on SF-295 was > 100 µM (inactive).
Turning to `N#CC(NNC(=O)c1ccccc1O)c1cccc(O)c1` (stereo not drawn), the GI50 is 4.25 µM (inactive) with HOP-92; 1.55 µM (inactive) in the assay on UO-31; 37.6 µM (inactive) with HT-29; 58.2 µM (inactive) in the assay on MOLT-4; > 100 µM (inactive) in the assay with SK-MEL-28; 6.35 µM (inactive) with M14. In addition, the GI50 with CCRF-CEM is 4.66 µM (inactive); in the assay with LOX IMVI, 4.94 µM (inactive); with COLO 205, 32.7 µM (inactive); with HOP-62, 10.6 µM (inactive); with NCI-H522 it was 9.73 µM (inactive); in the assay with OVCAR-4, 3.36 µM (inactive). Also, the GI50 was 0.986 µM (active) in the assay on SF-268; > 100 µM (inactive) with SR; 4.89 µM (inactive) in the assay with SNB-78; > 100 µM (inactive) in the assay on TK-10; 6.53 µM (inactive) in the assay on 786-0; 1.85 µM (inactive) in the assay on UACC-62. The GI50 with SF-295 is 3.67 µM (inactive).
For the compound `COc1cc2nncc(Sc3cnnc4ccccc34)c2cc1OC`, the GI50 is 6.14 µM (inactive) in the assay on HOP-92; 19.1 µM (inactive) with UO-31; 21.6 µM (inactive) with HT-29; 22.2 µM (inactive) in the assay on MOLT-4; 23 µM (inactive) in the assay on SK-MEL-28; 18 µM (inactive) in the assay with M14. Moreover, the GI50 with CCRF-CEM is 17.5 µM (inactive); in the assay on LOX IMVI, 23.3 µM (inactive); in the assay on COLO 205, 22.6 µM (inactive); in the assay on HOP-62, 34.3 µM (inactive); in the assay with NCI-H522, 12.9 µM (inactive); in the assay with OVCAR-4, 10.1 µM (inactive). Besides, the GI50 is 31.1 µM (inactive) with SF-268; 6 µM (inactive) in the assay on SNB-78; 29 µM (inactive) in the assay with TK-10; 27.4 µM (inactive) in the assay with 786-0; 7.52 µM (inactive) in the assay with UACC-62; 37.1 µM (inactive) in the assay with EKVX. For the same compound, the GI50 with SF-295 is 26.9 µM (inactive).
Take `Cc1oc2c(C)c3oc(=O)cc(C)c3cc2c1CNC(=O)[C@@H]1OCCOCCOCCOCCOCCOC1C(=O)O` (stereo partly drawn): the GI50 is > 100 µM (inactive) in the assay on HOP-92; > 100 µM (inactive) in the assay on UO-31; > 100 µM (inactive) in the assay with HT-29; > 100 µM (inactive) in the assay with MOLT-4; 12.5 µM (inactive) in the assay with M14; > 100 µM (inactive) in the assay with CCRF-CEM. Besides, the GI50 with LOX IMVI, with COLO 205, with HOP-62, with NCI-H522, in the assay on OVCAR-4 and in the assay with SF-268 was > 100 µM (inactive) in each case. The GI50 was > 100 µM (inactive) in the assay with SR; > 100 µM (inactive) with SNB-78; > 100 µM (inactive) in the assay with TK-10; 21.2 µM (inactive) in the assay on 786-0; > 100 µM (inactive) in the assay on UACC-62; > 100 µM (inactive) in the assay with EKVX. For the same compound, in the assay with SF-295, the GI50 was > 100 µM (inactive).
Consider `CCN(CC)CCOC(c1ccccc1)c1ccccc1.CCOC(=O)Nc1ccc(S(=O)(=O)NCCCl)cc1.CCOC(=O)Nc1ccc(S(=O)(=O)NCCCl)cc1.Nc1ccc(C(=O)O)c(O)c1`, for which the GI50 in the assay with HOP-92, with UO-31, with HT-29, with MOLT-4, in the assay on SK-MEL-28 and with M14 was > 100 µM (inactive) each time. Also, the GI50 in the assay on CCRF-CEM, with LOX IMVI, in the assay on COLO 205, with HOP-62, in the assay with NCI-H522 and in the assay with OVCAR-4 was > 100 µM (inactive) throughout. In addition, the GI50 in the assay with SF-268, in the assay with SNB-78, in the assay on TK-10, in the assay with 786-0, with UACC-62 and with EKVX was > 100 µM (inactive) in each case. The GI50 in the assay on SF-295 is > 100 µM (inactive).
